Key:
[1] = system: HCV replicon RNA (GenBank Accession No. AJ242654); test: HCV Replicon Assay (replicon RNA reduction and/or Fluc reporter signal); assay type: cell-based, Hepatitis C virus; conditions: Hepatitis C virus, 72 h, replicon-containing cells cultured with test compound for up to 3 days
How it was run: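 Bicistronic replicon-containing cells cultured with compound for up to 3 days, with interferon as positive control. Inhibition quantified by replicon RNA reduction and/or Fluc reporter signal; IC50 values generally derived from replicon RNA reduction.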

SMILES | IC50 [1] | melting point
Cc1cnc2c(C#N)c(-c3ccc(S(=O)(=O)N[C@@H](C)C(F)(F)F)cn3)n(-c3ccnnc3)c2c1 [Cpd 480, 6-[3-cyano-6-methyl-1-(pyridazin-4-yl)-1H-pyrrolo[3,2-b]pyridin-2-yl]-N-[(2S)-1,1,1-trifluoropropan-2-yl]pyridine-3-sulfonamide] | 2000 to 5000 nM | 283 to 285 °C
C[C@H](NS(=O)(=O)c1ccc(-c2c(C#N)c3cc(O)cnc3n2C2CCCC2)nc1)C(F)(F)F [Cpd 294, 6-(3-cyano-1-cyclopentyl-5-hydroxy-1H-pyrrolo[2,3-b]pyridin-2-yl)-N-[(2S)-1,1,1-trifluoropropan-2-yl]pyridine-3-sulfonamide] | < 500 nM | 221 to 223 °C
Cc1ncc2c(C#N)c(-c3ccc(S(=O)(=O)NC(C)(C)C(F)(F)F)cc3)n(C3CCC3)c2n1 [Cpd 53, 4-(5-cyano-7-cyclobutyl-2-methyl-7H-pyrrolo[2,3-d]pyrimidin-6-yl)-N-(1,1,1-trifluoro-2-methylpropan-2-yl)benzenesulfonamide] | < 500 nM | 211 to 214 °C
CN(C)c1cnc2c(c1)c(C#N)c(-c1ccc(NS(=O)(=O)C3(C)CC3)cc1)n2C1CCC1 [Cpd 499, N-{4-[3-cyano-1-cyclobutyl-5-(dimethylamino)-1H-pyrrolo[2,3-b]pyridin-2-yl]phenyl}-1-methylcyclopropanesulfonamide] | < 500 nM | 209 to 213 °C
C[C@H](NS(=O)(=O)c1ccc(-c2c(C#N)c3ncc(Cl)cc3n2C2CCCCC2)cc1)C(F)(F)F [Cpd 287, 4-(6-chloro-3-cyano-1-cyclohexyl-1H-pyrrolo[3,2-b]pyridin-2-yl)-N-[(2S)-1,1,1-trifluoropropan-2-yl]benzenesulfonamide] | 500 to 2000 nM | 300 to 305 °C
Cc1cnc2c(c1)c(C#N)c(-c1ccc(S(=O)(=O)NC(C)(C)C)cn1)n2-c1ccccc1 [Cpd 524, N-tert-butyl-6-(3-cyano-5-methyl-1-phenyl-1H-pyrrolo[2,3-b]pyridin-2-yl)pyridine-3-sulfonamide] | 500 to 2000 nM | 228.6 to 229.3 °C
CC(C)(C)NS(=O)(=O)c1ccc(-c2c(C#N)c3cc(C(F)(F)F)cnc3n2-c2ccc(F)cc2)nc1 [Cpd 517, N-tert-butyl-6-[3-cyano-1-(4-fluorophenyl)-5-(trifluoromethyl)-1H-pyrrolo[2,3-b]pyridin-2-yl]pyridine-3-sulfonamide] | 500 to 2000 nM | 228.3 to 229.4 °C
Cc1cc2c(cn1)c(C#N)c(-c1ccc(S(=O)(=O)N[C@@H](C)C(F)(F)F)cn1)n2C1CCC1 [Cpd 28, 6-(3-cyano-1-cyclobutyl-6-methyl-1H-pyrrolo[3,2-c]pyridin-2-yl)-N-[(2S)-1,1,1-trifluoropropan-2-yl]pyridine-3-sulfonamide] | 2000 to 5000 nM | 189 to 191 °C
CC(C)(C)NS(=O)(=O)c1ccc(-c2c(C(N)=O)c3cc(C(F)(F)F)cnc3n2-c2ccccc2)nc1 [Cpd 523, 2-[5-(tert-butylsulfamoyl)pyridin-2-yl]-1-phenyl-5-(trifluoromethyl)-1H-pyrrolo[2,3-b]pyridine-3-carboxamide] | < 500 nM | 241.8 to 243 °C
Cc1cnc2c(c1)c(C#N)c(-c1ccc(S(=O)(=O)N[C@H](C)C(F)(F)F)cn1)n2C1CCC1 [Cpd 68, 6-(3-cyano-1-cyclobutyl-5-methyl-1H-pyrrolo[2,3-b]pyridin-2-yl)-N-[(2R)-1,1,1-trifluoropropan-2-yl]pyridine-3-sulfonamide] | < 500 nM | 176 to 178 °C
COc1cnc2c(c1)c(C#N)c(-c1ncc(S(=O)(=O)NC(CF)CF)cn1)n2C1CCC1 [Cpd 11, 2-(3-cyano-1-cyclobutyl-5-methoxy-1H-pyrrolo[2,3-b]pyridin-2-yl)-N-(1,3-difluoropropan-2-yl)pyrimidine-5-sulfonamide] | 500 to 2000 nM | 194 to 196 °C
CC1(NS(=O)(=O)c2ccc(-c3c(C(N)=O)c4cc(C(F)(F)F)cnc4n3C3CCCCC3)cc2)CC1 [Cpd 442, 1-cyclohexyl-2-{4-[(1-methylcyclopropyl)sulfamoyl]phenyl}-5-(trifluoromethyl)-1H-pyrrolo[2,3-b]pyridine-3-carboxamide] | < 500 nM | 284 to 286 °C
COc1ccc2c(C#N)c(-c3ccc(S(=O)(=O)NC(C)(C)C)cc3)n(C3CCC3)c2n1 [Cpd 44, N-tert-butyl-4-(3-cyano-1-cyclobutyl-6-methoxy-1H-pyrrolo[2,3-b]pyridin-2-yl)benzenesulfonamide] | < 500 nM | 155 to 157 °C
Cc1cnc2c(c1)c(C#N)c(-c1ccc(S(=O)(=O)N[C@@H](C)C(F)(F)F)cn1)n2-c1nccs1 [Cpd 450, 6-[3-cyano-5-methyl-1-(1,3-thiazol-2-yl)-1H-pyrrolo[2,3-b]pyridin-2-yl]-N-[(2S)-1,1,1-trifluoropropan-2-yl]pyridine-3-sulfonamide] | < 500 nM | 208 to 210 °C
C[C@@H](NS(=O)(=O)c1ccc(-c2c(C#N)c3ccc(Cl)nc3n2C2CCC2)nc1)C(F)(F)F [Cpd 162, 6-(6-chloro-3-cyano-1-cyclobutyl-1H-pyrrolo[2,3-b]pyridin-2-yl)-N-[(2R)-1,1,1-trifluoropropan-2-yl]pyridine-3-sulfonamide] | < 500 nM | 172 to 178 °C
C[C@H](NS(=O)(=O)c1ccc(-c2c(C#N)c3cc(C#N)cnc3n2C2CCC2)cc1)C(F)(F)F [Cpd 110, 4-(3,5-dicyano-1-cyclobutyl-1H-pyrrolo[2,3-b]pyridin-2-yl)-N-[(2S)-1,1,1-trifluoropropan-2-yl]benzenesulfonamide] | < 500 nM | 241 to 243 °C
CC(C)NS(=O)(=O)c1ccc(-c2c(C#N)c3cc(C(F)(F)F)cnc3n2C2CCC2)nc1 [Cpd 244, 6-[3-cyano-1-cyclobutyl-5-(trifluoromethyl)-1H-pyrrolo[2,3-b]pyridin-2-yl]-N-(propan-2-yl)pyridine-3-sulfonamide] | < 500 nM | 186 to 187 °C
Cc1cc(S(=O)(=O)N[C@@H](C)C(F)(F)F)cnc1-c1c(C#N)c2cc(C(F)(F)F)cnc2n1C1CCC1 [Cpd 301, 6-[3-cyano-1-cyclobutyl-5-(trifluoromethyl)-1H-pyrrolo[2,3-b]pyridin-2-yl]-5-methyl-N-[(2S)-1,1,1-trifluoropropan-2-yl]pyridine-3-sulfonamide] | < 500 nM | 190 to 194 °C
Cc1ccnc(-n2c(-c3ccc(S(=O)(=O)N[C@@H](C)C(F)(F)F)cn3)c(C#N)c3cc(C(F)(F)F)cnc32)n1 [Cpd 355, 6-[3-cyano-1-(4-methylpyrimidin-2-yl)-5-(trifluoromethyl)-1H-pyrrolo[2,3-b]pyridin-2-yl]-N-[(2S)-1,1,1-trifluoropropan-2-yl]pyridine-3-sulfonamide] | < 500 nM | 176 to 180 °C
CCc1cnc2c(c1)c(C#N)c(-c1ccc(S(=O)(=O)N[C@@H](C)C(F)(F)F)cn1)n2-c1nccs1 [Cpd 512, 6-[3-cyano-5-ethyl-1-(1,3-thiazol-2-yl)-1H-pyrrolo[2,3-b]pyridin-2-yl]-N-[(2S)-1,1,1-trifluoropropan-2-yl]pyridine-3-sulfonamide] | < 500 nM | 229 to 231 °C
CC(C)NS(=O)(=O)c1ccc(-c2c(C#N)c3cc(Cl)cnc3n2CC2CC2)cc1 [Cpd 1, 4-[5-chloro-3-cyano-1-(cyclopropylmethyl)-1H-pyrrolo[2,3-b]pyridin-2-yl]-N-(propan-2-yl)benzenesulfonamide] | < 500 nM | 113 to 116 °C
CC(C)(NS(=O)(=O)c1ccc(-c2c(C(N)=O)c3cc(C(F)(F)F)cnc3n2C2CCCCC2)cc1)C(F)(F)F [Cpd 439, 1-cyclohexyl-5-(trifluoromethyl)-2-{4-[(1,1,1-trifluoro-2-methylpropan-2-yl)sulfamoyl]phenyl}-1H-pyrrolo[2,3-b]pyridine-3-carboxamide] | < 500 nM | 280 to 283 °C
NC(=O)c1c(-c2ccc(S(=O)(=O)NC3(C(F)(F)F)CC3)cc2)n(C2CCC2)c2ncc(C(F)(F)F)cc12 [Cpd 402, 1-cyclobutyl-5-(trifluoromethyl)-2-(4-{[1-(trifluoromethyl)cyclopropyl]sulfamoyl}phenyl)-1H-pyrrolo[2,3-b]pyridine-3-carboxamide] | < 500 nM | 261 to 263 °C
Cc1cc(S(=O)(=O)N[C@@H](C)C(F)(F)F)cnc1-c1c(C#N)c2cc(Cl)cnc2n1C1CCCC1 [Cpd 290, 6-(5-chloro-3-cyano-1-cyclopentyl-1H-pyrrolo[2,3-b]pyridin-2-yl)-5-methyl-N-[(2S)-1,1,1-trifluoropropan-2-yl]pyridine-3-sulfonamide] | < 500 nM | 240 to 245 °C
CC(C)(C)NS(=O)(=O)c1ccc(-c2c(C#N)c3cc(C(F)(F)F)cnc3n2C2CCC2)nc1 [Cpd 297, N-tert-butyl-6-[3-cyano-1-cyclobutyl-5-(trifluoromethyl)-1H-pyrrolo[2,3-b]pyridin-2-yl]pyridine-3-sulfonamide] | < 500 nM | 176 to 178 °C
CC(C)(C)NS(=O)(=O)c1ccc(-c2c(C#N)c3cc(C4CC4)cnc3n2C2CCC2)cc1 [Cpd 125, N-tert-butyl-4-(3-cyano-1-cyclobutyl-5-cyclopropyl-1H-pyrrolo[2,3-b]pyridin-2-yl)benzenesulfonamide] | < 500 nM | 210 to 215 °C
CCn1c(-c2ccc(S(=O)(=O)N[C@@H](C)C(F)(F)F)cc2)c(C#N)c2cc(C)cnc21 [Cpd 484, 4-(3-cyano-1-ethyl-5-methyl-1H-pyrrolo[2,3-b]pyridin-2-yl)-N-[(2S)-1,1,1-trifluoropropan-2-yl]benzenesulfonamide] | 500 to 2000 nM | 147 to 152 °C
CN(Cc1ccccc1)c1cnc2c(c1)c(C#N)c(-c1ccc(S(=O)(=O)NC(C)(C)C)cc1)n2C1CCC1 [Cpd 351, 4-{5-[benzyl(methyl)amino]-3-cyano-1-cyclobutyl-1H-pyrrolo[2,3-b]pyridin-2-yl}-N-tert-butylbenzenesulfonamide] | 2000 to 5000 nM | 168 to 171 °C

Source: patent US9593108B2, “Compounds and methods for antiviral treatment” (PTC Therapeutics, Inc., priority 2009, dated 2017)
